US12594421B2, “Compositions and methods for increasing cancer cell sensitivity to alternating electric fields” (NOVOCURE GMBH, priority 2020, dated 2026)

Assays:
cancer cells [1] = assay: Apoptosis, TTFields plus GSK3β inhibitor 9-ING-41 (FIG. 19); assay type: cell-based; conditions: cell line and concentration not stated
Protocol: (§1) Cell death was assessed by double staining of cells with FITC-conjugated annexin V (MEBCYTO© 4700 Apoptosis Kit; MBL©) and 7-Aminoactinomycin D (7-AAD; BioLegend©) as per manufacturer's instructions.

cancer cells [2] = assay: Cell cytotoxicity, TTFields plus GSK3β inhibitor 9-ING-41 (FIG. 19); assay type: cell-based; conditions: cell line and concentration not stated
Protocol: (§2) Cells were detached from Inovitro™ dishes with 0.5 ml Trypsin A for approximately 5 minutes and then supplemented with 0.5 ml culture media. 200 μl of cells were taken to 96 well U-shaped plate to be counted in MACSQuant 10 flow cytometer. Analysis was performed with FlowJo_V10 software and statistics was done by GraphPad Prism 8 software.

A2780 cells [3] = assay type: cell-based; conditions: for inhibition concentration 25 (IC25): concentration added for 72 h, cell line not stated in b192 (8 nM is the A2780 concentration of b155)
Protocol: (§3) All cell lines were obtained from ATCC: U-87 (human glioma cell lines) and H1299 (human metastatic lung carcinoma), A2780 (ovarian cell line). Cells were cultured in Dulbecco's modified Eagle's medium (Biological Industries) or RPMI (GIBCO) medium supplemented with 5-10% fetal bovine serum and antibiotics.
5,000-50,000 single cells were suspended in 500 μL of media and seeded in the middle of a 22 mm diameter cover slip.
(§4) For induction of 24 hours or longer TTFields application the cover slips were placed in a ceramic dish of Inovitro™ system and allowed to incubate in a conventional tissue culture incubator (37° C., 95% air, 5% CO2) overnight. Once cells adhered to the cover slip, an additional 1.5 mL of media were added to each well and covered in Parafilm (P7793, Sigma Aldrich) to avoid evaporation of media. After an overnight incubation dishes were mounted onto Inovitro™ base plates (Novocure Inc., Haifa, Israel). Tumor Treating electric fields set anywhere from 1-6 V/cm were applied through an Inovitro™ power generator while frequencies ranged from 50-500 kHz. Incubation temperature was 18° C. with a target temperature of 37° C. for the ceramic dishes upon application of the TTFields. Corresponding control experiments were done by placing equivalent cover slips within ceramic dishes into a conventional tissue culture incubator (37° C., 5% CO2) and cells grown in parallel with the TTField-exposed coverslips.
(§5) BGT226, Alpalisib, Pictilisib, BKM120 and Dasatinib were added was added to cells 12-24 hours after seeding for inhibitor mono-treatment and combination treatment to a final concentration of 8 nM, 1 nm, 1 nm, 500 nm and 75 nm respectively in A2780 cells. Control and TTFields samples received same volume of DMSO. Following 72 hours of treatment media was replaced for media with no inhibitor and cells were grown for additional 96 hours. At 168 hours (7 days) cytotoxic assay was performed by GentelMACS cell count, Apoptosis assay and cells were seeded for colony assay (as specified in cell count and Quantification of cell death).
as §2

A2780 cells [4] = assay: Apoptosis assay (annexin V / 7-AAD), TTFields plus inhibitor; assay type: cell-based, human; conditions: FIG. 6E
Protocol: as §5, §1

A2780 cells [5] = assay: Colony assay (clonogenicity), TTFields plus inhibitor; assay type: cell-based, human; conditions: FIG. 18; BGT226 8 nM 72 h, then TTFields alone 96 h
Protocol: as §5
Colony assay: following cell count 300 cells of each treatment were seeded in duplicates in 6 well dishes with 2 ml media. Once colonies were visible they were washed with PBS. Cells were fixed in −20° C. methanol and stained with 0.5% Crystal violet. Colonies were imaged in camera and counted using Image J (FIJI).

[6] = tested on: Akt phosphorylation in Ser473; assay: Western blot of Akt phosphorylation (pAkt Ser473) after TTFields with BGT226; assay type: cell-based, human
Protocol: Following TTFields application cells were transferred to cold PBS plates for wash.
RIPA lysis buffer (R0278, Sigma-Aldrich), supplemented with a cocktail of protease (Complete Mini, Roche), and phosphatase inhibitors (Halt #78420, Thermo Scientific) was added to plates and cells were scraped with approximately 100 μl supplemented RIPA buffer for 8 Inovitro™ dishes.
Extracts were shaken at 4° C. for a duration of 30 minutes. Samples were centrifuged (20 min, 14,000 rpm, 4° C.). supernatant was transferred and protein concentration was determined by BCA protein assay kit. […]
After electrophoresis, proteins were transferred to 0.2 μm polyvinylidene difluoride membrane (Immuno-Blot PVDF #162-0177, Bio-Rad) and probed with the appropriate primary antibody: GAPDH (SC-32233, Santa Cruz), Vinculin (ab140007, Abcam), Cyclin D1 (2922, Cell Signaling), Rb (9309, Cell Signaling), pRb S807/811 (8516, Cell Signaling), pAkt 5473, (4051, Cell signaling), Akt (2920, Cell signaling)), FAK (3283S, Cell signaling), Phospho-FAK (Tyr397) (3283S, Cell signaling, Src (2109S, cell signaling) and Phospho-Src (Tyr416) (2101S, Cell signaling). followed by horseradish peroxidase-conjugated secondary antibody (goat anti rabbit 7074, Cell Signaling and goat anti mouse 7076, Cell Signaling) and a chemiluminescent substrate (WBLUF0100, Signa-Aldrich). Quantification of bands was done by Image J software. […]

H1299 cells = assay: Cytotoxicity by cell count, TTFields plus Dasatinib; assay type: cell-based, human; conditions: H1299, TTFields 150 kHz, Dasatinib 0.03 μM (IC25) 72 h, then TTFields alone 96 h
Protocol: as §3
as §4, with “Corresponding control experiments were done by placing equivalent cover slips within ceramic dishes into a conventional tissue culture incubator (37° C., 5% CO2) and cells grown in parallel with the TTField-exposed coverslips.” left out
Cells were detached from Inovitro™ dishes with 0.5 ml Trypsin A for approximately 5 minutes and then supplemented with 0.5 ml culture media. 200 μl of cells were taken to 96 well U-shaped plate to be counted in MACSQuant 10 flow cytometer. […]

Which results are given for `Cn1cc(C2=C(c3coc4ccc(F)cc34)C(=O)NC2=O)c2cc3c(cc21)OCO3` [9-ING-41]?
efficacy of TTFields treatment in apoptosis, combination therapy (cancer cells [1]): did not increase efficacy of TTFields treatment; efficacy of TTFields treatment in cell cytotoxicity, combination therapy (cancer cells [2]): did not increase efficacy of TTFields treatment

With `COc1ccc(-c2ccc3ncc4c(c3c2)n(-c2ccc(N3CCNCC3)c(C(F)(F)F)c2)c(=O)n4C)cn1` [BGT226] as the compound, how does the “cell resistance caused by pro-survival signaling by TTFields” value (A2780 cells [3]; FIG. 6A-6E, cell line not stated) read?
Its value is “inhibited by BGT226”.

And the “cell survival, combination of TTFields with BGT226” value (A2780 cells [3]; FIG. 6C, cell line not stated)?
Its value is “synergistic effect in cell survival”.

What about the “efficacy of combination with TTFields, BGT226 compared with Paclitaxel” value (A2780 cells [3]; FIG. 18, BGT226 8 nM or Paclitaxel 2 nM 72 h, then TTFields alone 96 h) of the same compound?
The value was “more effective than Paclitaxel and TTFields”.

What about the “inhibition concentration 25 (IC25)” value (A2780 cells [3]; FIG. 18) of the same compound?
The value was 8 nM.

What about the “live cells (AnnexinV-/7AAD-), inhibitor alone compared to combined treatment” value (A2780 cells [4]) of the same compound?
Its value is “more live cells”.

And the “apoptotic assay, combined treatment of TTFields and inhibitor” value (A2780 cells [4]; cell line not stated)?
The value was “induce apoptosis in reminder of cells”.

And the “clonogenicity, combination therapy with TTFields” value (A2780 cells [5])?
The value was “dramatic effect in combination therapy with BGT226 compared to Paclitaxel”.

And the “phosphorylation of Akt in Ser473 following combined treatment of TTFields and BGT226” value ([6]; A2780 cells, BGT226 5 nM for 72 h, then media without inhibitor 96 h, lysate at 168 hours)?
Its value is “decrease in phosphorylation of Akt in Ser473”.

And the “increase in Akt phosphorylation following TTFields” value ([6]; Western blot, FIG. 5A-5B)?
The value was “inhibited by BGT226”.

With `Cc1nc(Nc2ncc(C(=O)Nc3c(C)cccc3Cl)s2)cc(N2CCN(CCO)CC2)n1` [Dasatinib] as the compound, how does the “treatment efficacy of TTFields plus Dasatinib, cytotoxic effect” value (A2780 cells [3]; A2780, TTFields 200 kHz, Dasatinib 0.075 μM (IC25) 72 h, then TTFields alone 96 h) read?
Its value is “increased treatment efficacy relative to TTFields or inhibitor alone in all combination groups”.

And the “treatment efficacy of TTFields plus Dasatinib, cytotoxic effect” value (H1299 cells)?
The value was “increased treatment efficacy relative to TTFields or inhibitor alone in all combination groups”.

With `CC(=O)O[C@H]1C(=O)[C@@]2(C)[C@H]([C@H](OC(=O)c3ccccc3)[C@]3(O)C[C@H](OC(=O)[C@H](O)[C@@H](NC(=O)c4ccccc4)c4ccccc4)C(C)=C1C3(C)C)[C@]1(OC(C)=O)CO[C@@H]1C[C@@H]2O` [Paclitaxel] as the compound, how does the “cytotoxicity of combination with TTFields” value (A2780 cells [3]; FIG. 18, Paclitaxel 2 nM 72 h, then TTFields alone 96 h) read?
The value was “effective to a lesser extent than that of BGT226”.

And the “inhibition concentration 25 (IC25)” value (A2780 cells [3]; FIG. 18)?
Its value is 2 nM.
